Data as given in US10800752B2, “Substituted naphtho[2,3-b]furans as water-soluble prodrugs for preventing and/or treating cancer” (BOSTON BIOMEDICAL, INC., priority 2015, dated 2020).

Experiments:
[1] = Evaluation of a conversion rate to 2-acetylnaphtho[2,3-b]furan-4,9-dione in human plasma; assay type: in vitro ADME; details: Human plasma, 1 umol/L, 37° C., incubation time 120 min
Method: (§1) For test compounds, the decrease rate of the test compounds and the conversion rate thereof to 2-acetylnaphtho[2,3-b]furan-4,9-dione in human plasma, CD1 mouse plasma, and pH 7.4 phosphate buffer solution were measured.
(§2) Test compounds were incubated at the concentration of 1 umol/L in human plasma (cat. no. 12250210, COSMO BIO), CD1 mouse plasma (cat. no. AP3054, KAC), and phosphate buffer solution at 37° C., and removed at predetermined times (0, 5, 10, 30, 60, and 120 minutes). After protein-removing treatment was performed, they are analyzed with LC-MS. It should be noted that the protein-removing treatment used acetonitrile containing: 10% volume of 1 mol/L hydrochloric acid; 1% volume of 46% citric acid; and phenytoin as an internal standard.
(§3) The measurement condition of LC-MS is as described below. LC-MS condition column: Kinetex 2.6 u PFP 100 A 50×2.1 mm Column temperature: 40° C.
(§4) Mobile phase: A: 0.1% formic acid-containing water
(§5) • B: 0.1% formic acid-containing acetonitrile A/B(min): 95/5(0)→5/95(3)→5/95(4)→95/5(4.1)→95/5(6) Flow rate: 0.4 mL/min Detection: ESI (positive mode) Injection volume: 10 uL
In the same way as Example 6, the incubation time was set as 120 minutes later, and the conversion rate of each of various test compounds to 2-acetylnaphtho[2,3-b]furan-4,9-dione in human plasma, CD1 mouse plasma, and pH 7.4 phosphate buffer solution was measured.

[2] = Evaluation of a conversion rate to 2-acetylnaphtho[2,3-b]furan-4,9-dione in CD1 mouse plasma; assay type: in vitro ADME; details: CD1 mouse plasma, 1 umol/L, 37° C., incubation time 120 min
Method: as §1, §2, §3, §4, §5
Measurement values are calculated from the peak area ratio in LC-MS between an internal standard material, phenytoin and an active form, 2-acetylnaphtho[2,3-b]furan-4,9-dione, and are expressed in %.
In the same way as Example 6, the incubation time was set as 120 minutes later, and the conversion rate of each of various test compounds to 2-acetylnaphtho[2,3-b]furan-4,9-dione in human plasma, CD1 mouse plasma, and pH 7.4 phosphate buffer solution was measured. A series of the present compounds were confirmed to be converted to 2-acetylnaphtho[2,3-b]furan-4,9-dione in pH 7.4 phosphate buffer solution in addition to human plasma and CD1 mouse plasma. Therefore, a series of the test compounds of the present invention were confirmed to be converted to the activated form via a route other than an enzymatic conversion.

[3] = Evaluation of a conversion rate to 2-acetylnaphtho[2,3-b]furan-4,9-dione in pH 7.4 phosphate buffer solution; assay type: physicochemical; details: Phosphate buffer solution (pH 7.4), 1 umol/L, 37° C., incubation time 120 min
Outline: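 Compounds at 1 umol/L were incubated at 37° C in human plasma, CD1 mouse plasma or pH 7.4 phosphate buffer, sampled up to 120 minutes, acid/acetonitrile-deproteinised and analysed by LC-MS (ESI positive). Conversion (%) derived from the peak area ratio of the active form to phenytoin internal standard.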

Solubility test = details: 50 mmol/L glycine buffer solution (pH 2.0), room temperature, 24 hours shaking
Method: A water-soluble prodrug was added into 50 mmol/L glycine buffer solution (pH 2.0). After shaking at room temperature for 24 hours, the mixture was filtered through a membrane filter, and then the filtrate was measured with HPLC.
The measurement condition of HPLC is as described below. HPLC condition column: Acquity UPLC BEH C18, 1.7 um, 50×2.1 mm
Mobile phase: A: 0.1% trifluoroacetic acid-containing water

| Structure (SMILES) | % Measurement value (conversion rate to 2-acetylnaphtho[2,3-b]furan-4,9-dione) [1] | % Measurement value (conversion rate to 2-acetylnaphtho[2,3-b]furan-4,9-dione) [2] | % Measurement value (conversion rate to 2-acetylnaphtho[2,3-b]furan-4,9-dione) [3] | Solubility in pH 2.0 buffer solution (Solubility test) |
| --- | --- | --- | --- | --- |
| CC(=O)c1cc2c(OC(=O)NCCCCCCCN)c3ccccc3c(O)c2o1.Cl [Example 73] | 88% | 63% | 66% | 0.1 mg/mL |
| CC(=O)c1cc2c(O)c3ccccc3c(OC(=O)NCCNCC(=O)O)c2o1.Cl [Example 78] | 54% | 66% | 43% | 0.1 mg/mL |
| COC(=O)[C@@H](N)CNC(=O)Oc1c2ccccc2c(OC(=O)NC[C@H](N)C(=O)OC)c2oc(C(C)=O)cc12.Cl.Cl [Example 32] | 81% | 74% | 46% | >5.0 mg/mL |
| CC(=O)c1cc2c(OC(=O)NCCCCCNCC(=O)O)c3ccccc3c(O)c2o1.Cl [Example 76] | 68% | 71% | 57% | 0.4 mg/mL |
| CC(=O)c1cc2c(OC(=O)NCCCCCCN)c3ccccc3c(OC(=O)NCCCCCCN)c2o1.Cl.Cl [Example 37] | 35% | 33% | 17% | >5.0 mg/mL |
| CC(=O)c1cc2c(OC(=O)NCCCCCN)c3ccccc3c(O)c2o1.Cl [Example 72] | 53% | 42% | 38% | 2.4 mg/mL |
| CC(=O)c1cc2c(OC(=O)NCCCCN)c3ccccc3c(O)c2o1.Cl [Example 74] | 70% | 62% | 82% | 4.9 mg/mL |
| CC(=O)c1cc2c(OC(=O)NCCCCCCCN)c3ccccc3c(OC(=O)NCCCCCCCN)c2o1.Cl.Cl [Example 38] | 85% | 72% | 39% | >5.0 mg/mL |
| CC(=O)c1cc2c(OC(=O)NCCCCCCCCN)c3ccccc3c(O)c2o1.Cl [Example 75] | 79% | 60% | 45% | 0.1 mg/mL |
| COC(=O)CNCCNC(=O)Oc1c2ccccc2c(OC(=O)NCCNCC(=O)OC)c2oc(C(C)=O)cc12.Cl.Cl [Example 36] | 73% | 66% | 46% | >5.0 mg/mL |
| CC(=O)c1cc2c(O)c3ccccc3c(OC(=O)NCCNCC(=O)NCC(=O)O)c2o1.Cl [Example 83] | 67% | 67% | 31% | >5.0 mg/mL |
| CC(=O)c1cc2c(OC(=O)NCCCNCC(=O)O)c3ccccc3c(O)c2o1.Cl [Example 77] | 68% | 70% | 66% | 0.5 mg/mL |
| CC(=O)c1cc2c(OC(=O)NCCNCC(=O)NCC(=O)O)c3ccccc3c(OC(=O)NCCNCC(=O)NCC(=O)O)c2o1.Cl.Cl [Example 41] | 86% | 81% | 52% | >5.0 mg/mL |
| CC(=O)c1cc2c(OC(=O)NC3CNC3)c3ccccc3c(OC(=O)NC3CNC3)c2o1.Cl.Cl [Example 10] | 89% | 59% | 58% | >5.0 mg/mL |
| CC(=O)c1cc2c(OC(=O)NCCCCCCCCN)c3ccccc3c(OC(=O)NCCCCCCCCN)c2o1.Cl.Cl [Example 39] | 80% | 62% | 31% | >5.0 mg/mL |
| CC(=O)c1cc2c(OC(=O)NCCNCC(=O)O)c3ccccc3c(O)c2o1.Cl [Example 71] | 61% | 68% | 70% | 0.1 mg/mL |
| CC(=O)c1cc2c(OC(=O)NCCCCCNCC(=O)O)c3ccccc3c(OC(=O)NCCCCCNCC(=O)O)c2o1.Cl.Cl [Example 35] | 78% | 70% | 38% | >5.0 mg/mL |
| CC(=O)c1cc2c(OC(=O)NCCCNCC(=O)O)c3ccccc3c(OC(=O)NCCCNCC(=O)O)c2o1.Cl.Cl [Example 40] | 89% | 86% | 50% | >5.0 mg/mL |
